Experimental data: publication PMC6413085, “A Validated HPLC-MS/MS Assay for 14-O-[(4,6-Diaminopyrimidine-2-yl)thioacetyl] Mutilin in Biological Samples and Its Pharmacokinetic, Distribution and Excretion via Urine and Feces in Rats” (Molecules, 2019)

Experiments:
[1] = Stability of DPTM in plasma, tissue homogenates, urine and feces (QC samples); format: physicochemical, rat
Experimental: Stability of DPTM and IS was examined by comparing the analytes’ concentrations in freshly prepared samples with those of samples maintained under different conditions, including the 24 h storage at room temperature, three freeze and thaw cycles, and storage at −70 °C for 4 weeks, respectively. Analyzing three levels of QC samples were used to assess the stability (accuracy and precision) with six replicates.
For the construction of calibration curves, 20 μL of each corresponding standard working solution (0.05, 0.2, 0.5, 1, 2, 5, 10, 20 and 40 μg/mL) was evaporated to dryness by nitrogen at 40 °C. The calibration standards (5, 20, 50, 100, 200, 500, 1000, 2000 and 4000 ng/mL) were prepared by adding 200 μL of blank plasma, various tissue homogenates (including heart, liver, spleen, lung, kidney, large intestine, small intestine, ileum, cecum, bladder, brain, jejunum and colon) or urine and feces to the residue, respectively. Quality control (QC) samples (10, 200 and 3000 ng/mL) were obtained by the same way as the calibration standards. All solutions were stored at −70 °C before use for no longer than 4 weeks.

[2] = test system: Gram-positive bacteria, including methicillin-resistant Staphylococcus aureus (MRSA), Staphylococcus aureus, Bacillus subtilis; design: method as in PMID 27940400; details: S. aureus, B. subtilis; cited from earlier work

Stability RE ([1]; Bladder, 10 ng/mL, Freeze-thaw Cycles): 3.9%
Stability RE ([1]; Bladder, 10 ng/mL, Long-term (−70 °C, 4 Weeks)): 3.6%
Stability RE ([1]; Bladder, 10 ng/mL, Short-term (25 °C, 24 h)): 4.1%
Stability RE ([1]; Bladder, 200 ng/mL, Freeze-thaw Cycles): 5.1%
Stability RE ([1]; Bladder, 200 ng/mL, Long-term (−70 °C, 4 Weeks)): 5.1%
Stability RE ([1]; Bladder, 200 ng/mL, Short-term (25 °C, 24 h)): 1.9%
Stability RE ([1]; Bladder, 3000 ng/mL, Freeze-thaw Cycles): 3.5%
Stability RE ([1]; Bladder, 3000 ng/mL, Long-term (−70 °C, 4 Weeks)): 3.3%
Stability RE ([1]; Bladder, 3000 ng/mL, Short-term (25 °C, 24 h)): 3.1%
Stability RE ([1]; Brain, 10 ng/mL, Freeze-thaw Cycles): 4.9%
Stability RE ([1]; Brain, 10 ng/mL, Long-term (−70 °C, 4 Weeks)): 5.3%
Stability RE ([1]; Brain, 10 ng/mL, Short-term (25 °C, 24 h)): 1.1%
Stability RE ([1]; Brain, 200 ng/mL, Freeze-thaw Cycles): 6.5%
Stability RE ([1]; Brain, 200 ng/mL, Long-term (−70 °C, 4 Weeks)): 6.6%
Stability RE ([1]; Brain, 200 ng/mL, Short-term (25 °C, 24 h)): 3.3%
Stability RE ([1]; Brain, 3000 ng/mL, Freeze-thaw Cycles): 4.1%
Stability RE ([1]; Brain, 3000 ng/mL, Long-term (−70 °C, 4 Weeks)): 4.1%
Stability RE ([1]; Brain, 3000 ng/mL, Short-term (25 °C, 24 h)): 8.1%
Stability RE ([1]; Cecum, 10 ng/mL, Freeze-thaw Cycles): 7.2%
Stability RE ([1]; Cecum, 10 ng/mL, Long-term (−70 °C, 4 Weeks)): 6.4%
Stability RE ([1]; Cecum, 10 ng/mL, Short-term (25 °C, 24 h)): 6.7%
Stability RE ([1]; Cecum, 200 ng/mL, Freeze-thaw Cycles): 3.9%
Stability RE ([1]; Cecum, 200 ng/mL, Long-term (−70 °C, 4 Weeks)): 3.2%
Stability RE ([1]; Cecum, 200 ng/mL, Short-term (25 °C, 24 h)): 3.1%
Stability RE ([1]; Cecum, 3000 ng/mL, Freeze-thaw Cycles): −4.9%
Stability RE ([1]; Cecum, 3000 ng/mL, Long-term (−70 °C, 4 Weeks)): −6.4%
Stability RE ([1]; Cecum, 3000 ng/mL, Short-term (25 °C, 24 h)): −5.1%
Stability RE ([1]; Colon, 10 ng/mL, Short-term (25 °C, 24 h)): 5.4%
Stability RE ([1]; Ileum, 10 ng/mL, Freeze-thaw Cycles): −3.5%
Stability RE ([1]; Ileum, 10 ng/mL, Long-term (−70 °C, 4 Weeks)): 3.2%
Stability RE ([1]; Ileum, 10 ng/mL, Short-term (25 °C, 24 h)): 2.9%
Stability RE ([1]; Ileum, 200 ng/mL, Freeze-thaw Cycles): 5.2%
Stability RE ([1]; Ileum, 200 ng/mL, Long-term (−70 °C, 4 Weeks)): −5.1%
Stability RE ([1]; Ileum, 200 ng/mL, Short-term (25 °C, 24 h)): 1.7%
Stability RE ([1]; Ileum, 3000 ng/mL, Freeze-thaw Cycles): 3.3%
Stability RE ([1]; Ileum, 3000 ng/mL, Long-term (−70 °C, 4 Weeks)): 3.5%
Stability RE ([1]; Ileum, 3000 ng/mL, Short-term (25 °C, 24 h)): 3.1%
Stability RE ([1]; Jejunum, 10 ng/mL, Freeze-thaw Cycles): 6.1%
Stability RE ([1]; Jejunum, 10 ng/mL, Long-term (−70 °C, 4 Weeks)): 5.6%
Stability RE ([1]; Jejunum, 10 ng/mL, Short-term (25 °C, 24 h)): 7.2%
Stability RE ([1]; Jejunum, 200 ng/mL, Freeze-thaw Cycles): 7.3%
Stability RE ([1]; Jejunum, 200 ng/mL, Long-term (−70 °C, 4 Weeks)): 7.3%
Stability RE ([1]; Jejunum, 200 ng/mL, Short-term (25 °C, 24 h)): 7.5%
Stability RE ([1]; Jejunum, 3000 ng/mL, Freeze-thaw Cycles): −5.4%
Stability RE ([1]; Jejunum, 3000 ng/mL, Long-term (−70 °C, 4 Weeks)): −5.6%
Stability RE ([1]; Jejunum, 3000 ng/mL, Short-term (25 °C, 24 h)): −5.3%
Stability RE ([1]; Kidney, 10 ng/mL, Freeze-thaw Cycles): 3.7%
Stability RE ([1]; Kidney, 10 ng/mL, Long-term (−70 °C, 4 Weeks)): 3.5%
Stability RE ([1]; Kidney, 10 ng/mL, Short-term (25 °C, 24 h)): 3.4%
Stability RE ([1]; Kidney, 200 ng/mL, Freeze-thaw Cycles): 2.3%
Stability RE ([1]; Kidney, 200 ng/mL, Long-term (−70 °C, 4 Weeks)): 1.9%
Stability RE ([1]; Kidney, 200 ng/mL, Short-term (25 °C, 24 h)): 0.9%
Stability RE ([1]; Kidney, 3000 ng/mL, Freeze-thaw Cycles): 10.1%
Stability RE ([1]; Kidney, 3000 ng/mL, Long-term (−70 °C, 4 Weeks)): 9.9%
Stability RE ([1]; Kidney, 3000 ng/mL, Short-term (25 °C, 24 h)): 3.2%
Stability RE ([1]; Large intestine, 10 ng/mL, Freeze-thaw Cycles): 6.3%
Stability RE ([1]; Large intestine, 10 ng/mL, Long-term (−70 °C, 4 Weeks)): 6.9%
Stability RE ([1]; Large intestine, 10 ng/mL, Short-term (25 °C, 24 h)): 1.9%
Stability RE ([1]; Large intestine, 200 ng/mL, Freeze-thaw Cycles): 2.4%
Stability RE ([1]; Large intestine, 200 ng/mL, Long-term (−70 °C, 4 Weeks)): 2.2%
Stability RE ([1]; Large intestine, 200 ng/mL, Short-term (25 °C, 24 h)): 5.7%
Stability RE ([1]; Large intestine, 3000 ng/mL, Freeze-thaw Cycles): 3.1%
Stability RE ([1]; Large intestine, 3000 ng/mL, Long-term (−70 °C, 4 Weeks)): 3.5%
Stability RE ([1]; Large intestine, 3000 ng/mL, Short-term (25 °C, 24 h)): −0.9%
Stability RE ([1]; Liver, 10 ng/mL, Freeze-thaw Cycles): 3.3%
Stability RE ([1]; Liver, 10 ng/mL, Long-term (−70 °C, 4 Weeks)): 3.4%
Stability RE ([1]; Liver, 10 ng/mL, Short-term (25 °C, 24 h)): 2.9%
Stability RE ([1]; Liver, 200 ng/mL, Freeze-thaw Cycles): 3.4%
Stability RE ([1]; Liver, 200 ng/mL, Long-term (−70 °C, 4 Weeks)): 3.6%
Stability RE ([1]; Liver, 200 ng/mL, Short-term (25 °C, 24 h)): 3.3%
Stability RE ([1]; Liver, 3000 ng/mL, Freeze-thaw Cycles): 1.9%
Stability RE ([1]; Liver, 3000 ng/mL, Long-term (−70 °C, 4 Weeks)): 2.1%
Stability RE ([1]; Liver, 3000 ng/mL, Short-term (25 °C, 24 h)): 6.1%
Stability RE ([1]; Lung, 10 ng/mL, Freeze-thaw Cycles): 2.5%
Stability RE ([1]; Lung, 10 ng/mL, Long-term (−70 °C, 4 Weeks)): 2.9%
Stability RE ([1]; Lung, 10 ng/mL, Short-term (25 °C, 24 h)): 3.3%
Stability RE ([1]; Lung, 200 ng/mL, Freeze-thaw Cycles): 3.1%
Stability RE ([1]; Lung, 200 ng/mL, Long-term (−70 °C, 4 Weeks)): 3.5%
Stability RE ([1]; Lung, 200 ng/mL, Short-term (25 °C, 24 h)): 2.1%
Stability RE ([1]; Lung, 3000 ng/mL, Freeze-thaw Cycles): 7.6%
Stability RE ([1]; Lung, 3000 ng/mL, Long-term (−70 °C, 4 Weeks)): 7.5%
Stability RE ([1]; Lung, 3000 ng/mL, Short-term (25 °C, 24 h)): 1.3%
Stability RE ([1]; Small intestine, 10 ng/mL, Freeze-thaw Cycles): 4.9%
Stability RE ([1]; Small intestine, 10 ng/mL, Long-term (−70 °C, 4 Weeks)): 4.6%
Stability RE ([1]; Small intestine, 10 ng/mL, Short-term (25 °C, 24 h)): 1.3%
Stability RE ([1]; Small intestine, 200 ng/mL, Freeze-thaw Cycles): 3.2%
Stability RE ([1]; Small intestine, 200 ng/mL, Long-term (−70 °C, 4 Weeks)): 3.6%
Stability RE ([1]; Small intestine, 200 ng/mL, Short-term (25 °C, 24 h)): 3.7%
Stability RE ([1]; Small intestine, 3000 ng/mL, Freeze-thaw Cycles): 3.9%
Stability RE ([1]; Small intestine, 3000 ng/mL, Long-term (−70 °C, 4 Weeks)): 3.8%
Stability RE ([1]; Small intestine, 3000 ng/mL, Short-term (25 °C, 24 h)): 5.3%
Stability RE ([1]; Spleen, 10 ng/mL, Freeze-thaw Cycles): 3.6%
Stability RE ([1]; Spleen, 10 ng/mL, Long-term (−70 °C, 4 Weeks)): 3.3%
Stability RE ([1]; Spleen, 10 ng/mL, Short-term (25 °C, 24 h)): 3.7%
Stability RE ([1]; Spleen, 200 ng/mL, Freeze-thaw Cycles): 7.9%
Stability RE ([1]; Spleen, 200 ng/mL, Long-term (−70 °C, 4 Weeks)): 7.1%
Stability RE ([1]; Spleen, 200 ng/mL, Short-term (25 °C, 24 h)): 7.2%
Stability RE ([1]; Spleen, 3000 ng/mL, Freeze-thaw Cycles): 5.6%
Stability RE ([1]; Spleen, 3000 ng/mL, Long-term (−70 °C, 4 Weeks)): 5.7%
Stability RE ([1]; Spleen, 3000 ng/mL, Short-term (25 °C, 24 h)): 5.9%
results of stability experiments (% RE and % RSD) ([1]; plasma, tissue homogenates, urine and feces, 24 h at room temperature, three freeze and thaw cycles, −70 °C for 4 weeks): ≤ 15%
SMILES: C=CC1(C)CC(OC(=O)CSc2nc(N)cc(N)n2)C2(C)C(C)CCC3(CCC(=O)C32)C(C)C1O (stereo not drawn) [DPTM, 14-O-[(4,6-Diaminopyrimidine-2-yl)thioacetyl] mutilin]
in vitro activities against Gram-positive bacteria [2]: excellent in vitro activities
